Measured values from US10730889B2, “Amido spirocyclic amide and sulfonamide derivatives” (Forma TM, LLC, priority 2012, dated 2020).

System: A2780 cells
Test: In-vitro cell proliferation assay (SRB, 72 hours)
Assay type: cell-based
Conditions: Homo sapiens, A2780, 72 h, A2780 cells, 72 hours, SRB; read-out: Cell Proliferation (IC50)
Experimental: Assay 2: In-Vitro Cell Proliferation Assay
Assay Method. […] The compounds were then further diluted to 10× final concentration in culture media, whereupon 20 μL of each dilution was added to the plated cells with controls (e.g. DMSO and blank) to make a final volume of 200 μL. The final DMSO concentration in each well was 0.1%. The plates were then incubated for 72 hours at 37° C. in a 5% CO2 incubator. The number of viable cells was then assessed using sulforhodamine B (SRB) assay. Cells were fixed at 4° C. for 1 hour with the addition of 50 μL 30% trichloroacetic acid (TCA) to make a final concentration of 6% TCA. The plates were washed four times with H2O and allowed to dry for at least 1 hour, whereupon 100 μL of a 4% SRB in 1% acetic acid solution was added to each well and incubated at room temperature for at least 30 min. The plates were then washed three times with 1% acetic acid, dried, and treated with 100 μL of 10 mM Tris-Base solution. The plates were then read in a microplate reader at an absorbance of 570 nm. Background was generated on a separate plate with media only.
Determination of IC50 Values. First, the signals from the background plate were averaged, then the background was subtracted from the test plates.

## O=C(NCC1CC12CCN(C(=O)NCc1ccc(F)cc1)CC2)c1cc2ccncc2o1 (centres unmarked) [Example 163, N-[[6-[(4-fluorophenyl)methylcarbamoyl]-6-azaspiro[2.5]octan-2-yl]methyl]furo[2,3-c]pyridine-2-carboxamide]
  IC50: 2000 nM

## Cc1nccn1Cc1ccc(C(=O)N2CCC3(CC2)CC3CNC(=O)c2cc3ccncc3o2)cc1 (centres unmarked) [Example 246, N-[[6-[4-[(2-methylimidazol-1-yl)methyl]benzoyl]-6-azaspiro[2.5]octan-2-yl]methyl]furo[2,3-c]pyridine-2-carboxamide]
  IC50: 13.8 nM

## O=C(NCC1CC12CCN(C(=O)c1ccc(N3CCS(=O)(=O)CC3)cc1)CC2)c1cc2ccncc2o1 (centres unmarked) [Example 85, N-[[6-[4-(1,1-dioxo-1,4-thiazinan-4-yl)benzoyl]-6-azaspiro[2.5]octan-2-yl)methyl]furo[2,3-c]pyridine-2-carboxamide]
  IC50: 14.2 nM

## CC(C)C(=O)N1CC(C(=O)N2CCC3(CC2)CC3CNC(=O)c2cc3ccncc3o2)C1 (centres unmarked) [Example 144, N-[[6-[1-(2-methylpropanoyl)azetidine-3-carbonyl]-6-azaspiro[2.5]octan-2-yl]methyl]furo[2,3-c]pyridine-2-carboxamide]
  IC50: 375 nM

## O=C(NCC1CC12CCN(C(=O)c1ccccc1Cn1ccnc1)CC2)c1cc2ccncc2o1 (centres unmarked) [Example 260, N-[[6-(2-(imidazol-1-ylmethyl)benzoyl]-6-azaspito[2.5]octan-2-yl]methyl]furo[2,3-c]pyridine-2-carboxamide]
  IC50: 2000 nM

## Cc1ccn(CC(C)C(=O)N2CCC3(CC2)CC3CNC(=O)c2cc3ccncc3o2)n1 (centres unmarked) [Example 140, N-[[6-[2-methyl-3-(3-methylpyrazol-1-yl)propanoyl]-6-azaspiro[2.5]octan-2-yl]methyl]furo[2,3-c]pyridine-2-carboxamide]
  IC50: 2000 nM

## O=C(NCC1CC12CCN(C(=O)c1cocn1)CC2)c1cc2ccncc2o1 (centres unmarked) [Example 99, N-[[6-(oxazole-4-carbonyl)-6-azaspiro[2.5]octan-2-yl]methyl]furo[2,3-c]pyridine-2-carboxamide]
  IC50: 2000 nM

## CN1CCN(c2ccc(C(=O)N3CCC4(CC3)CC4CNC(=O)c3cc4cnccc4[nH]3)cc2)CC1 (centres unmarked) [Example 363, N-[[6-[4-(4-methylpiperazin-1-yl)benzoyl]-6-azaspiro[2.5]octan-2-yl]methyl]-1H-pyrrolo[3,2-c]pyridine-2-carboxamide]
  IC50: 11.4 nM

## Cc1nn(C)cc1C(=O)N1CCC2(CC1)CC2CNC(=O)c1cc2ccncc2o1 (centres unmarked) [Example 335, N-[[6-(1,3-dimethylpyrazole-4-carbonyl)-6-azaspiro[2.5]octan-2-yl]methyl]furo[2,3-c]pyridine-2-carboxamide]
  IC50: 590 nM

## CC(C)Cc1cc(C(=O)N2CCC3(CC2)CC3CNC(=O)c2cc3ccncc3o2)[nH]n1 (centres unmarked) [Example 319, N-[[6-(3-isobutyl-1H-pyrazole-5-carbonyl)-6-azaspiro[2.5]octan-2-yl]methyl]furo[2,3-c]pyridine-2-carboxamide]
  IC50: 55 nM

## CN1CCC(C)(CC(=O)N2CCC3(CC2)CC3CNC(=O)N2Cc3ccncc3C2)CC1 (centres unmarked) [Example 356, N-[[6-[2-(1,4-dimethyl-4-piperidyl)acetyl]-6-azaspiro[2.5]octan-2-yl]methyl]-1,3-dihydropyrrolo[3,4-c]pyridine-2-carboxamide]
  IC50: 7.62 nM

## NC(=O)Nc1ccc(C(=O)N2CCC3(CC2)CC3CNC(=O)c2cc3ccncc3o2)cc1 (centres unmarked) [Example 94, N-[[6-(4-ureidobenzoyl)-6-azaspiro[2.5]octan-2-yl]methyl]furo[2,3-c]pyridine-2-carboxamide]
  IC50: 437 nM

## N#CCC(=O)N1CCC2(CC1)CC2CNC(=O)N1Cc2ccncc2C1 (centres unmarked) [Example 191, N-[[6-(2-cyanoacetyl)-6-azaspiro[2.5]octan-2-yl]methyl]-1,3-dihydropyrrolo[3,4-c]pyridine-2-carboxamide]
  IC50: 1040 nM

## O=C(Cc1ccncc1)N1CCC2(CC1)CC2CNC(=O)N1Cc2ccncc2C1 (centres unmarked) [Example 190, N-[[6-[2-(4-pyridyl)acetyl]-6-azaspiro[2.5]octan-2-yl]methyl]-1,3-dihydropyrrolo[3,4-c]pyridine-2-carboxamide]
  IC50: 50.7 nM

## O=C(NCC1CC12CCN(C(=O)c1ccnc(N3CCOCC3)c1)CC2)c1cc2ccncc2o1 (centres unmarked) [Example 129, N-[[6-(2-morpholinopyridine-4-carbonyl)-6-azaspiro[2.5]octan-2-yl]methyl]furo[2,3-c]pyridine-2-carboxamide]
  IC50: 37.3 nM

## CCn1cc(C(=O)N2CCC3(CC2)CC3CNC(=O)c2cc3ccncc3o2)c(C)n1 (centres unmarked) [Example 138, N-[[6-(1-ethyl-3-methyl-pyrazole-4-carbonyl)-6-azaspiro[2.5]octan-2-yl)methyl]furo[2,3-c]pyridine-2-carboxamide]
  IC50: 2000 nM

## CC(=O)N1CCC(C(=O)N2CCC3(CC2)CC3CNC(=O)c2cc3ccncc3o2)CC1 (centres unmarked) [Example 82, N-[[6-(1-acetylpiperidine-4-carbonyl)-6-azaspiro[2.5]octan-2-yl]methyl]furo[2,3-c]pyridine-2-carboxamide]
  IC50: 710 nM

## O=C(NCC1CC12CCN(C(=O)Nc1ccccc1)CC2)c1cc2ccncc2o1 (centres unmarked) [Example 187, N-[[6-(phenylcarbamoyl)-6-azaspiro[2.5]octan-2-yl]methyl]furo[2,3-c]pyridine-2-carboxamide]
  IC50: 2460 nM

## O=C(NCC1CC12CCN(C(=O)c1cccc3[nH]cnc13)CC2)c1cc2ccncc2o1 (centres unmarked) [Example 236, N-[[6-(1H-benzimidazole-4-carbonyl)-6-azaspiro[2.5]octan-2-yl]methyl]furo[2,3-c]pyridine-2-carboxamide]
  IC50: 47.3 nM

## CC(C)(CO)OC(=O)N1CCC2(CC1)CC2CNC(=O)N1Cc2ccncc2C1 (centres unmarked) [Example 351, (2-hydroxy-1,1-dimethyl-ethyl) 2-[(1,3-dihydropyrrolo[3,4-c]pyridine-2-carbonylamino)methyl]-6-azaspiro[2.5]octane-6-carboxylate]
  IC50: 3.56 nM

## Cc1n[nH]cc1C(=O)N1CCC2(CC1)CC2CNC(=O)c1cc2ccncc2o1 (centres unmarked) [Example 106, N-[[6-(3-methyl-1H-pyrazole-4-carbonyl)-6-azaspiro[2.5]octan-2-yl]methyl]furo[2,3-c]pyridine-2-carboxamide]
  IC50: 743 nM

## CC(=O)N1CC(C(=O)N2CCC3(CC2)CC3CNC(=O)c2cc3ccncc3o2)C1 (centres unmarked) [Example 145, N-[[6-(1-acetylazetidine-3-carbonyl)-6-azaspiro[2.5]octan-2-yl]methyl]furo[2,3-c]pyridine-2-carboxamide]
  IC50: 2000 nM

## Cc1cnn(C)c1C(=O)N1CCC2(CC1)CC2CNC(=O)c1cc2ccncc2o1 (centres unmarked) [Example 299, N-[[6-(2,4-dimethylpyrazole-3-carbonyl)-6-azaspiro[2.5]octan-2-yl]methyl]furo[2,3-c]pyridine-2-carboxamide]
  IC50: 249 nM

## CN1CCN(Cc2ccccc2C(=O)N2CCC3(CC2)CC3CNC(=O)c2cc3ccncc3o2)CC1 (centres unmarked) [Example 87, N-[[6-[2-[(4-methylpiperazin-1-yl)methyl]benzoyl]-6-azaspiro[2.5]octan-2-yl]methyl]furo[2,3-c]pyridine-2-carboxamide]
  IC50: 2000 nM

## CC1(C)CC1C(=O)N1CCC2(CC1)CC2CNC(=O)N1Cc2ccncc2C1 (centres unmarked) [Example 389, N-[[6-(2,2-dimethylcyclopropanecarbonyl)-6-azaspiro[2.5]octan-2-yl]methyl]-1,3-dihydropyrrolo[3,4-c]pyridine-2-carboxamide]
  IC50: 0.575 nM

## Cc1ccc(CNC(=O)N2CCC3(CC2)CC3CNC(=O)c2cc3ccncc3o2)cc1 (centres unmarked) [Example 162, N-[[6-(p-tolylmethylcarbamoyl)-6-azaspiro[2.5]octan-2-yl]methyl]furo[2,3-c]pyridine-2-carboxamide]
  IC50: 2000 nM

## Cc1ccc2nc(C(=O)N3CCC4(CC3)CC4CNC(=O)c3cc4ccncc4o3)[nH]c2c1 (centres unmarked) [Example 310, N-[[6-(6-methyl-1H-benzimidazole-2-carbonyl)-6-azaspiro[2.5]octan-2-yl]methyl]furo[2,3-c]pyridine-2-carboxamide]
  IC50: 30.8 nM

## Cc1nn(C)c(C)c1C(=O)N1CCC2(CC1)CC2CNC(=O)c1cc2ccncc2o1 (centres unmarked) [Example 181, N-[[6-(1,3,5-trimethylpyrazole-4-carbonyl)-6-azaspiro[2.5]octan-2-yl]methyl]furo[2,3-c]pyridine-2-carboxamide]
  IC50: 3.31 nM

## CC(C)c1n[nH]cc1C(=O)N1CCC2(CC1)CC2CNC(=O)c1cc2ccncc2o1 (centres unmarked) [Example 324, N-[[6-(3-isopropyl-1H-pyrazole-4-carbonyl)-6-azaspiro[2.5]octan-2-yl]methyl]furo[2,3-c]pyridine-2-carboxamide]
  IC50: 109 nM

## O=C(NCC1CC12CCN(C(=O)c1n[nH]c3ccccc13)CC2)c1cc2ccncc2o1 (centres unmarked) [Example 302, N-[[6-(1H-indazole-3-carbonyl)-6-azaspiro[2.5]octan-2-yl]methyl]furo(2,3-c]pyridine-2-carboxamide]
  IC50: 90.3 nM

## O=C(NCC1CC12CCN(C(=O)c1ccncc1)CC2)c1cc2ccncc2o1 (centres unmarked) [Example 97, N-[[6-(pyridine-4-carbonyl)-6-azaspiro[2.5]octan-2-yl]methyl]furo[2,3-c]pyridine-2-carboxamide]
  IC50: 2000 nM

## O=C(NCC1CC12CCN(C(=O)c1cc(C3CC3)n[nH]1)CC2)c1cc2cnccc2[nH]1 (centres unmarked) [Example 368, N-[[6-(3-cyclopropyl-1H-pyrazole-5-carbonyl)-6-azaspiro[2.5]octan-2-yl]methyl]-1H-pyrrolo[3,2-c]pyridine-2-carboxamide]
  IC50: 991 nM

## O=C(NCC1CC12CCN(C(=O)CN1CCCC1=O)CC2)c1cc2ccncc2o1 (centres unmarked) [Example 57, N-[[6-[2-(2-oxopyrrolidin-1-yl)acetyl]-6-azaspiro[2.5]octan-2-yl)methyl]furo[2,3-c]pyridine-2-carboxamide]
  IC50: 1600 nM

## O=C(NCC1CC12CCN(C(=O)CCN1CCOCC1)CC2)c1cc2ccncc2o1 (centres unmarked) [Example 65, N-[[6-(3-morpholinopropanoyl)-6-azaspiro[2.5]octan-2-yl]methyl]furo[2,3-c]pyridine-2-carboxamide]
  IC50: 931 nM

## O=C(NCC1CC12CCN(C(=O)c1ccc(-n3cncn3)cc1)CC2)c1cc2ccncc2o1 (centres unmarked) [Example 179, N-[[6-[4-(1,2,4-triazol-1-yl)benzoyl]-6-azaspiro[2.5]octan-2-yl]methyl]furo[2,3-c]pyridine-2-carboxamide]
  IC50: 25.4 nM
